Source: article PMC7997032, “Organic synthesis and anti-influenza A virus activity of cyclobakuchiols A, B, C, and D” (PLoS ONE, 2021)
Where “and” joins values, the source holds several entries; their conditions need not be identical. Identical values can stand only once.

Tested on: MDCK cells
Assay: MTT assay (cytotoxicity against MDCK cells)
Assay type: cell-based, canine
Conditions: MDCK cells; for MTT, DMSO as 100 (DMSOを 100として), ave / MTT 72h AVE (DMSO = 100): 72h; for MTT, DMSO as 100 (DMSOを 100として), ave: mean of 5 wells (200409 #1 and #3); for MTT 72h AVE (DMSO = 100): summary AVE; for MTT 24h, AVE (DMSO as 100) / MTT 24h, 570-650nm, DMSO as 100, ave: mean of 5 wells from 3 experiments; for MTT 24h, AVE (DMSO as 100): relative to DMSO = 100; for MTT 24h, 570-650nm, DMSO as 100, single replicate: individual wells (200331; 200403 #2 1,2; 200403 #3 1,2); for 570-650nm (MTT absorbance, single wells) / 570-650nm ave (mean MTT absorbance of 5 wells) / MTT absorbance with DMSO as 100 (DMSOを 100として), single wells: MTT 72h; for 570-650nm (MTT absorbance, single wells): experiments #1-#3, duplicate wells; for MTT absorbance with DMSO as 100 (DMSOを 100として), single wells: relative to mean of DMSO
Protocol: 1–5 (0.8–100 μM) were prepared in DMSO (100 μM, 1%; 50 μM, 0.5%; 25 μM, 0.25%; 12.5 μM, 0.125%; 6.3 μM, 0.063%; 3.1 μM, 0.031%; 1.6 μM, 0.016%; 0.8 μM, 0.008%) and mixed with infection medium (DMEM supplemented with 1% bovine serum albumin (BSA; Wako), P/S and 4 mM L-glutamine). The resulting mixture was added to the cells and incubated for 24 or 72 h at 37°C in the presence of 5% CO2. After incubation, cell viability was determined using an MTT cell count kit (Nacalai Tesque) according to the manufacturer’s instructions, as previously described.

[1] = 3.13uM (3.125uM in summary block)

Row | Structure (SMILES) | MTT, DMSO as 100 (DMSOを 100として), ave (0.78uM) | MTT, DMSO as 100 (DMSOを 100として), ave (1.56uM) | MTT 72h AVE (DMSO = 100) (6.25 (uM)) | MTT 72h AVE (DMSO = 100) (12.5 (uM)) | MTT 72h AVE (DMSO = 100) (25 (uM)) | MTT 72h AVE (DMSO = 100) (50 (uM)) | MTT 72h AVE (DMSO = 100) (100 (uM)) | MTT 24h, AVE (DMSO as 100) (0.78 uM) | MTT 24h, 570-650nm, DMSO as 100, single replicate (3.125uM) | MTT 24h, 570-650nm, DMSO as 100, ave (3.125uM) | MTT 24h, 570-650nm, DMSO as 100, single replicate (6.25uM) | MTT 24h, 570-650nm, DMSO as 100, ave (6.25uM) | MTT 24h, 570-650nm, DMSO as 100, single replicate (12.5uM) | MTT 24h, 570-650nm, DMSO as 100, ave (12.5uM) | MTT 24h, 570-650nm, DMSO as 100, single replicate (25uM) | MTT 24h, 570-650nm, DMSO as 100, ave (25uM) | MTT 24h, 570-650nm, DMSO as 100, single replicate (50uM) | MTT 24h, 570-650nm, DMSO as 100, ave (50uM) | MTT 24h, 570-650nm, DMSO as 100, single replicate (100uM) | MTT 24h, 570-650nm, DMSO as 100, ave (100uM) | other results
1 | C=C[C@]1(C)CC[C@@H](C(=C)C)[C@H](c2ccc(O)cc2)C1 [Cyclo. B] | 97.4368 | 107.487 | 152.012 | 128.856 | 133.275 | 92.332 | 27.1545 | 105.371 | 97.7259 and 87.8578 and 108.85 and 106.215 and 84.4914 | 97.028 | 100.056 and 92.1514 and 106.191 and 111.594 and 90.247 | 100.048 | 100.027 and 92.2079 and 111.97 and 107.481 and 100.019 | 102.341 | 93.3176 and 99.811 and 119.964 and 115.104 and 108.65 | 107.369 | 101.366 and 118.852 and 85.3652 and 130.523 and 116.385 | 110.498 | 120.469 and 116.882 and 135.616 and 105.182 and 78.3439 | 111.299 | MTT, DMSO as 100 (DMSOを 100として), ave (3.125uM): 135.205; MTT 24h, AVE (DMSO as 100) (1.56 uM): 93.7053; 570-650nm (MTT absorbance, single wells) (0.78uM): 1.0803 and 0.7822 and 0.6986 and 0.7618 and 0.6844 and 0.8059; 570-650nm (MTT absorbance, single wells) (1.56uM): 0.9938 and 0.9382 and 0.7725 and 0.5035 and 0.9217 and 0.7676; 570-650nm (MTT absorbance, single wells) [1]: 0.8489 and 0.8759 and 0.9309 and 0.9208 and 0.9982 and 0.8279; 570-650nm ave (mean MTT absorbance of 5 wells) (6.25uM): 1.04; 570-650nm (MTT absorbance, single wells) (6.25uM): 0.8643 and 1.0571 and 1.004 and 1.1478 and 1.1256 and 0.8768; MTT absorbance with DMSO as 100 (DMSOを 100として), single wells (6.25uM): 154.547 and 146.784 and 167.807 and 164.561 and 126.36; 570-650nm ave (mean MTT absorbance of 5 wells) (12.5uM): 1.026; 570-650nm (MTT absorbance, single wells) (12.5uM): 1.0196 and 0.9592 and 1.0242 and 0.9589 and 1.0117 and 1.1742; MTT absorbance with DMSO as 100 (DMSOを 100として), single wells (12.5uM): 120.471 and 128.675 and 147.52 and 127.104 and 120.509; 570-650nm ave (mean MTT absorbance of 5 wells) (25uM): 1.002; 570-650nm ave (mean MTT absorbance of 5 wells) (50uM): 0.8426; 570-650nm ave (mean MTT absorbance of 5 wells) (100uM): 0.2557; 570-650nm (MTT absorbance, single wells) (100uM): 0.2419 and 0.2859 and 0.234 and 0.2603 and 0.2251 and 0.273; MTT absorbance with DMSO as 100 (DMSOを 100として), single wells (100uM): 27.6474 and 24.854 and 28.9963 and 23.9087 and 30.3664
2 | C=C[C@@](C)(/C=C/c1ccc(O)cc1)CCC=C(C)C [(+)-(S)-baku.] | 101.639 | 110.926 | 135.974 | 116.119 | 164.273 | 107.359 | 28.7987 | 106.986 | 107.294 and 97.5488 and 102.772 and 101.94 and 95.2685 | 100.964 | 108.582 and 98.5976 and 113.546 and 113.49 and 101.426 | 107.128 | 102.57 and 93.2171 and 103.913 and 112.439 and 104.302 | 103.288 | 108.875 and 109.835 and 96.176 and 115.944 and 106.769 | 107.52 | 119.708 and 122.77 and 91.784 and 117.912 and 113.767 | 113.188 | 79.067 and 84.0157 and 140.292 and 89.6781 and 39.1391 | 86.4384 | MTT 72h AVE (DMSO = 100) (3.13 (uM)): 132.176; MTT 24h, 570-650nm, DMSO as 100, single replicate (1.56uM): 103.696 and 92.7462 and 106.461 and 104.983 and 94.4526; MTT 24h, 570-650nm, DMSO as 100, ave (1.56uM): 100.468; 570-650nm (MTT absorbance, single wells) (0.78uM): 0.9216 and 1.0625 and 0.5565 and 0.8595 and 0.8044 and 0.7519; 570-650nm (MTT absorbance, single wells) (1.56uM): 0.9826 and 0.8065 and 0.7089 and 0.7456 and 0.6067 and 0.9846; 570-650nm ave (mean MTT absorbance of 5 wells) (3.125uM): 0.8903; MTT absorbance with DMSO as 100 (DMSOを 100として), single wells (3.125uM): 116.345 and 146.749 and 122.432 and 152.375 and 122.981; 570-650nm (MTT absorbance, single wells) [1]: 0.8284 and 0.7837 and 0.9885 and 0.8247 and 1.0264 and 0.8069; 570-650nm ave (mean MTT absorbance of 5 wells) (6.25uM): 0.9301; 570-650nm (MTT absorbance, single wells) (6.25uM): 0.9089 and 0.9123 and 0.7679 and 0.9049 and 1.1563 and 0.9272; MTT absorbance with DMSO as 100 (DMSOを 100として), single wells (6.25uM): 133.377 and 112.266 and 132.295 and 169.05 and 132.88; 570-650nm ave (mean MTT absorbance of 5 wells) (12.5uM): 0.9243; 570-650nm ave (mean MTT absorbance of 5 wells) (25uM): 1.2355; 570-650nm (MTT absorbance, single wells) (25uM): 1.2252 and 1.1953 and 1.2444 and 1.2282 and 1.1748 and 1.3049; MTT absorbance with DMSO as 100 (DMSOを 100として), single wells (25uM): 165.457 and 163.303 and 156.203 and 173.501 and 162.904; 570-650nm ave (mean MTT absorbance of 5 wells) (50uM): 0.9798; 570-650nm ave (mean MTT absorbance of 5 wells) (100uM): 0.2711; 570-650nm (MTT absorbance, single wells) (100uM): 0.1982 and 0.2036 and 0.3213 and 0.2978 and 0.3355 and 0.2029; MTT absorbance with DMSO as 100 (DMSOを 100として), single wells (100uM): 34.1264 and 31.6304 and 35.6346 and 21.5507 and 21.0515
